Assay results as given in paper PMC11768481 (Pharmaceuticals, 2024).
Like-named read-outs stand apart in the source and are kept apart here.

Assays:
[1] = test system: T. cruzi Querétaro strain trypomastigotes; assay: In vitro infection of HFF-1 monolayers with trypomastigotes; release of trypomastigotes on the 5th day; type: cell-based; details: Trypanosoma cruzi; for IC50: HFF-1, monotherapy, release of trypomastigotes, Queretaro strain, 5th day, read-out: IC50 Monotherapy T. cruzi i.v. Infection
Source text: To evaluate the effects of the antidiabetics alone, a model of in vitro infection with trypomastigotes of monolayers of human foreskin fibroblasts 1 (HFF-1) was used as described in the methodology; the criterium to determine efficacy was the ability to decrease the trypomastigotes’ release after the 4th–5th day post-infection. The T. cruzi Querétaro strain (TBAR/MX/0000/Querétaro) was used, which is classified in the Tc1 group, and is characterized by its high degree of virulence.
In 24-well tissue culture plates, 2 × 10^4 HFF-1 cells in 0.5 mL of DMEM + 10% FBS were deposited in each well and incubated at 37 °C for 24 h for adherence. Next, the incubation medium was changed to DMEM + 2% FBS (0.5 mL), and 3 × 10^5 trypomastigotes were added to infect cells for 2 h at 37 °C. After the incubation, the cells were vigorously washed three times with DMEM + 2% FBS to remove uninternalized trypomastigotes, taking care to preserve the monolayer integrity. Then, the infected cells were incubated in DMEM + 2% FBS for 4–5 days in the absence or presence of BNZ (0, 0.05, 0.1, 0.2, 0.5 µM) and antidiabetics (0, 1, 10, 25, 50 µM) in monotherapy; the drug compounds were purchased from SIGMA. For bi-therapy, the same concentrations of BNZ were used in the presence of 0.5 or 1 µM of antidiabetics. […] In every independent assay, a control of infected cells without BNZ or antidiabetics was always included, which served as no treatment. The number of released mobile trypomastigotes on the 5th day was determined by light microscopy using a Neubauer chamber.
(§1) For the IC50 calculation, individual data curves were fitted to the dose–response equation: y=A1+(A2−A1)/(1+10^(logx0−x)×p), where A1 < A2; p > 0; bottom asymptote: A1 = 1; top asymptote: A2 = 2; center: logx0 = −1; hill slope: p = 0.2; or logistic equation y=A2+(A1−A2)/(1+x/x0)^p, where A1 = initial value, A2 = final value, x0 = center and p = power using the Origin 8 Software. The IC50 values were manually selected from the curves fit.

HFF-1 cells = assay: HFF-1 host cell growth after 5 days (Trypan blue exclusion count); type: cell-based, human; details: for IC50: Homo sapiens, HFF-1, 120 h, monotherapy, HFF-1 growth, 5 days, read-out: IC50 Monotherapy HFF-1 (n = 3)
Experimental: For HFF-1 IC50 evaluation, BNZ and the antidiabetic were varied as described above for the infection cultures, and cell proliferation was determined on the 5th day of growth, and the viability was determined by 0.2% Trypan blue exclusion (Corning Inc.; Corning, NY, USA). Briefly, the cells were washed twice with PBS-EDTA and later trypsinized for detachment. The cell suspension was homogenized with 150 µL of DMEM + 2% FBS, and an aliquot of 50 µL was diluted 1:1 with the solution of Trypan blue. The number of viable cells was counted using a Neubauer chamber under a microscope.
as §1

T. cruzi Ninoa strain = assay: Short-term monotherapy in mice infected with T. cruzi; blood trypomastigote count; type: in vivo, CD1 mice; details: single dose 100 mg/kg, intragastric, at peak of parasitemia, 8 h compared to time 0
Experimental: The effect of the antidiabetic drugs and BNZ in the clearance of blood trypomastigotes in mice infected with T. cruzi in acute drug treatment in monotherapy was evaluated. Trypanosoma cruzi Ninoa strain was used for these experiments; this strain is classified in the Tc1 group like the Querétaro strain [27]; Ninoa is characterized by lower virulence and therefore lower mortality in mice compared to the Querétaro strain [28]. However, epimastigotes of Ninoa strain are more resistant to BNZ [27]. Then, the T. cruzi Ninoa strain seems to be a more appropriate parasitic source to evaluate drug susceptibility in mice.
Mice of the CD1 strain were infected with Ninoa strain (MHOM/MX/1994/Ninoa) following modified protocols previously reported. Briefly, blood trypomastigotes obtained from an infected mouse were diluted with 0.9% saline solution at a density of 1 × 10^5 trypomastigotes/mL, and 0.1 mL were intraperitoneally inoculated in mice weighing 30–40 g. […] After reaching a parasitemia peak of 22 × 10^6 blood trypomastigotes/mL (12–18 days post-inoculation), the mice were separated into 5 groups of 3 mice each for drug treatment (for bioethical requirements, the number of animals used was kept at a minimum, and 3 mice per group was sufficient to perform statistical analysis). BNZ and antidiabetic drugs at a concentration of 100 mg/kg weight; doses of 3.16–3.79 mg (depending on the weight of the mice) were administered, diluted in 0.5 mL of vehicle (Arabic gum at 4%, diluted in purified water) using an intragastric tube. Then, 5 µL of blood were immediately extracted from the caudal vein (t = 0), and blood sampling was performed every 2 h up to 8 h. Trypomastigotes were counted using a modified protocol of that reported by Pizzi–Brenner, as reported before. […] The criterion for evaluating efficacy was the percentage of trypanocidal effect at 8 h compared to time 0.

[2] = test system: T. cruzi Querétaro strain epimastigotes; assay: Thiol metabolites (Cys, GSH, T(SH)2) in epimastigotes by HPLC; type: cell-based, Trypanosoma cruzi; details: 1 µM drug alone, 24 h
Experimental: Since thiol metabolite determination requires high amounts of biological material, the thiol determination content was performed in epimastigotes of the Queretaro strain. A 0.2 L culture of LIT medium was inoculated with epimastigotes at a density of 0.7 × 10^6 parasites/mL. The culture was incubated for 72 h at 28 °C, reaching, at the exponential growth phase, a concentration of 3 × 10^6 parasites/mL. The culture was separated into 8 aliquots of 25 mL, and 1 µM BNZ was added alone or in combination with 1 µM of the antidiabetic drugs. The cultures were incubated for 24 h at 28 °C. Subsequently, 1 mL of each sample was separated for protein determination, and the rest was used for thiol determination. Both samples were centrifuged at 20,817× g for 10 min; the pellets were washed twice with PBS. The pellets for protein were resuspended in 100 µL of Lowry’s solution A (2% Na2CO3, 0.4% NaOH, 0.16% Na-K tartrate, 1% SDS) and stored at −70 °C until protein determination using the Lowry method. The parasite pellets for thiol metabolite determination were immediately lysed by incubation in liquid nitrogen and stored at −70 °C.
Thiol determination was performed as described before. Cell lysates were thawed and resuspended in 90 µL of lysis buffer (20 mM Hepes, 1 mM EDTA, 0.15 mM KCl at pH 7), 20 mM DTT was added to each sample, and three cycles of freezing in liquid nitrogen and thawing at 37 °C were performed. The samples were centrifuged at 20,817× g for 10 min, and the supernatant was reduced with 2% sodium borohydride (NaBH4) and incubated for 10 min on ice. Then, perchloric acid was added at a final concentration of 3%, and the sample was centrifuged at 20,187× g for 2 min. The supernatant was filtered through a syringe-driven filter unit (0.45 µm) (Millipore; Carrigtwohill, County Cork, Ireland) and 20 µL of the eluate was injected in a high-performance liquid chromatography (HPLC) apparatus (Waters; Milford, MA, USA). The metabolites were separated in a C18 reverse-phase column (Altima, Columbia, MD, USA) using a mixture of acetonitrile—0.1% trifluoroacetic acid and a flux of 0.5 mL/min. The thiol metabolites were post-column derivatized with 0.1 mM di-thio-bis nitrobenzoic acid (DTNB), and the absorbance was detected at 412 nm with a UV-Vis detector coupled to the HPLC apparatus.

T. cruzi epimastigotes = details: cited from earlier work
[3] = set-up: method as in PMID 28673423, PMID 32592664, PMID 33043726; details: ref 1, 7, 8; cited from earlier work
Leishmania = details: alone; cited from earlier work
[4] = test system: Leishmania donovani promastigotes; set-up: method as in PMID 30827222; details: ref 23; cited from earlier work
Echinococcus granulosus = test system: Echinococcus granulosus; set-up: method as in PMID 29190739; details: monotherapy; cited from earlier work
[5] = ref 15, read-out: IC50 on the growth of epimastigotes

| SMILES | IC50 [1] | inhibition at 0.2 µM ([1]; HFF-1, read-out: inhibition of infection) | decrease of the growth of host cells (HFF-1 cells; 0.26 µM BNZ in monotherapy) | IC50 (HFF-1 cells) | decrease of the infection (blood trypomastigotes) (T. cruzi Ninoa strain) | Cys level [2] | T(SH)2 level [2] | IC50 (T. cruzi epimastigotes; CLBrener strain, read-out: IC50 on growth of epimastigotes) | IC50 (T. cruzi epimastigotes; Ninoa strain, read-out: IC50 on growth of epimastigotes) | IC50 (T. cruzi epimastigotes; Querétaro strain, read-out: IC50 on growth of epimastigotes) | IC50 (T. cruzi epimastigotes; ref 25, read-out: IC50 on the growth of epimastigotes) | IC50 (T. cruzi epimastigotes; ref 38, read-out: IC50 on the growth of epimastigotes) | rate of treatment interruption [3] | GSH level [2] | IC50 (T. cruzi epimastigotes; [5]) | effect on Leishmania infection (Leishmania) | growth of Leishmania donovani promastigotes [4] | activity on Echinococcus granulosus infection in mice (Echinococcus granulosus) | decrease in Cys [2] |
| --- | --- | --- | --- | --- | --- | --- | --- | --- | --- | --- | --- | --- | --- | --- | --- | --- | --- | --- | --- |
| O=C(Cn1ccnc1[N+](=O)[O-])NCc1ccccc1 [BNZ, benznidazole] | 0.26 ± 0.01 µM | 40% | 20% | 0.9 ± 0.09 µM | 80% | slightly decrease | not observed | 5.54 µM | 8.21 µM | 4.29 µM | 12 ± 2 µM | 9.4 ± 1.3 µM | 9–29% | – | – | – | – | – | – |
| COc1ccc(Cl)cc1C(=O)NCCc1ccc(S(=O)(=O)NC(=O)NC2CCCCC2)cc1 [GBD, glyburide] | 8.4 ± 6.3 µM | – | – | – | 60% | increased | decreased | – | – | – | – | – | – | decreased | 66 µM | decreased the infection | decreased their growth | anti-helmintic activity | – |
| CC1CS(=O)(=O)CCN1/N=C/c1ccc([N+](=O)[O-])o1 (stereo not drawn) [nifurtimox] | – | – | – | – | – | – | – | – | – | – | – | – | 14–75% | – | – | – | – | – | – |

Second part, led by results:

| IC50 [1] | SMILES | inhibition at 0.2 µM ([1]; HFF-1, read-out: inhibition of infection) | decrease of the growth of host cells (HFF-1 cells; 0.26 µM BNZ in monotherapy) | IC50 (HFF-1 cells) | decrease of the infection (blood trypomastigotes) (T. cruzi Ninoa strain) | Cys level [2] | T(SH)2 level [2] | IC50 (T. cruzi epimastigotes; CLBrener strain, read-out: IC50 on growth of epimastigotes) | IC50 (T. cruzi epimastigotes; Ninoa strain, read-out: IC50 on growth of epimastigotes) | IC50 (T. cruzi epimastigotes; Querétaro strain, read-out: IC50 on growth of epimastigotes) | IC50 (T. cruzi epimastigotes; ref 25, read-out: IC50 on the growth of epimastigotes) | IC50 (T. cruzi epimastigotes; ref 38, read-out: IC50 on the growth of epimastigotes) | rate of treatment interruption [3] | GSH level [2] | IC50 (T. cruzi epimastigotes; [5]) | effect on Leishmania infection (Leishmania) | growth of Leishmania donovani promastigotes [4] | activity on Echinococcus granulosus infection in mice (Echinococcus granulosus) | decrease in Cys [2] |
| --- | --- | --- | --- | --- | --- | --- | --- | --- | --- | --- | --- | --- | --- | --- | --- | --- | --- | --- | --- |
| 7.6 ± 2 µM | COc1ccc2c(c1)C(=O)N(CCc1ccc(S(=O)(=O)NC(=O)NC3CCCCC3)cc1)C(=O)C2(C)C [GLQ, gliquidone] | – | – | – | lower effect than BNZ | increased | decreased | – | – | – | – | – | – | decreased | 12 µM | – | – | – | – |
| 14.3 ± 7 µM | Cc1cnc(C(=O)NCCc2ccc(S(=O)(=O)NC(=O)NC3CCCCC3)cc2)cn1 [GPZ, glipizide] | – | – | 35 ± 19 µM | 60% | decreased | increased | – | – | – | – | – | – | – | 13.4 µM | – | – | – | ~50% |
